Where “and” joins values, the source holds several entries; their conditions need not be identical. Equal entries are not always repeated.
Tested on: BDF1 mice, Adenocarcinoma 755 s.c., tumor weight T/C
Test: NCI In Vivo Anticancer Drug Screen. Data for tumor model Adenocarcinoma 755 (subcutaneous) in B6D2F1 (BDF1) mice
Conditions: endpoint: mean tumor weight, higher = larger tumour
Summary of the method: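 Tumor-bearing mice receive test compound while controls get vehicle alone. Antitumor effect is scored from survival or tumor dimensions as a T/C quotient.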

Which T/C (dose: 0.2 mg/kg/injection, schedule: Q01DX011 (ip), vehicle: carboxymethylcellulose (CMC)) does the source give for `O=[N+]([O-])c1ccc(-n2cnc3c(=S)nc[nH]c32)o1` here?
The T/C was 105 % of control.

What about the T/C (dose: 0.4 mg/kg/injection, schedule: Q01DX011 (ip), vehicle: carboxymethylcellulose (CMC)) of the same compound?
Its T/C is 92 % of control.

And the T/C (dose: 0.8 mg/kg/injection, schedule: Q01DX011 (ip), vehicle: carboxymethylcellulose (CMC))?
The T/C was 86 % of control.

And the T/C (dose: 1.6 mg/kg/injection, schedule: Q01DX011 (ip), vehicle: carboxymethylcellulose (CMC))?
The T/C was 29 % of control and 44 % of control.

And the T/C (dose: 3.2 mg/kg/injection, schedule: Q01DX011 (ip), vehicle: carboxymethylcellulose (CMC))?
The T/C was 32 % of control.

What about the T/C (dose: 6.3 mg/kg/injection, schedule: Q01DX011 (ip), vehicle: carboxymethylcellulose (CMC)) of the same compound?
The T/C was 1 % of control.

How did the T/C (dose: 4.45 mg/kg/injection, schedule: Q01DX011 (ip), vehicle: carboxymethylcellulose (CMC)) turn out when `NC1(C(=O)O)CCCC1` was run?
The T/C was 71 % of control.

And the T/C (dose: 7.5 mg/kg/injection, schedule: Q01DX011 (ip), vehicle: methylcellulose (MC))?
Its T/C is 61 % of control.

What about the T/C (dose: 8.9 mg/kg/injection, schedule: Q01DX011 (ip), vehicle: carboxymethylcellulose (CMC)) of the same compound?
Its T/C is 70 % of control.

What about the T/C (dose: 13.12 mg/kg/injection, schedule: Q01DX011 (ip), vehicle: carboxymethylcellulose (CMC)) of the same compound?
Its T/C is 42 % of control.

And the T/C (dose: 14.24 mg/kg/injection, schedule: Q01DX011 (ip), vehicle: carboxymethylcellulose (CMC))?
Its T/C is 83 % of control.

And the T/C (dose: 15.0 mg/kg/injection, schedule: Q01DX011 (ip), vehicle: methylcellulose (MC))?
The T/C was 96 % of control.

And the T/C (dose: 16.0 mg/kg/injection, schedule: Q01DX011 (ip), vehicle: saline)?
Its T/C is 43 % of control.

And the T/C (dose: 18.0 mg/kg/injection, schedule: Q01DX011 (ip), vehicle: methylcellulose (MC))?
The T/C was 40 % of control.

And the T/C (dose: 23.73 mg/kg/injection, schedule: Q01DX011 (ip), vehicle: carboxymethylcellulose (CMC))?
Its T/C is 55 % of control.

And the T/C (dose: 30.0 mg/kg/injection, schedule: Q01DX011 (ip), vehicle: methylcellulose (MC))?
Its T/C is 12 % of control.

And the T/C (dose: 31.3 mg/kg/injection, schedule: Q01DX011 (ip), vehicle: saline)?
The T/C was 13 % of control.

And the T/C (dose: 35.6 mg/kg/injection, schedule: Q01DX011 (ip), vehicle: carboxymethylcellulose (CMC))?
Its T/C is 33 % of control and 38 % of control.

What about the T/C (dose: 37.5 mg/kg/injection, schedule: Q01DX011 (ip), vehicle: methylcellulose (MC)) of the same compound?
The T/C was 16 % of control.

What about the T/C (dose: 42.0 mg/kg/injection, schedule: Q01DX011 (ip), vehicle: carboxymethylcellulose (CMC)) of the same compound?
The T/C was 31 % of control.

What about the T/C (dose: 42.0 mg/kg/injection, schedule: Q01DX011 (oral), vehicle: saline) of the same compound?
The T/C was 10 % of control.

What about the T/C (dose: 52.5 mg/kg/injection, schedule: Q01DX011 (ip), vehicle: carboxymethylcellulose (CMC)) of the same compound?
Its T/C is 8 % of control and 14 % of control.

And the T/C (dose: 60.0 mg/kg/injection, schedule: Q01DX011 (ip), vehicle: methylcellulose (MC))?
Its T/C is 12 % of control.

And the T/C (dose: 62.5 mg/kg/injection, schedule: Q01DX011 (ip), vehicle: saline)?
Its T/C is 6 % of control.

And the T/C (dose: 63.0 mg/kg/injection, schedule: Q01DX011 (oral), vehicle: saline)?
The T/C was 4 % of control.

And the T/C (dose: 70.0 mg/kg/injection, schedule: Q01DX011 (ip), vehicle: carboxymethylcellulose (CMC))?
The T/C was 4 % of control.

And the T/C (dose: 95.0 mg/kg/injection, schedule: Q01DX011 (oral), vehicle: saline)?
The T/C was 1 % of control.

What about the T/C (dose: 105.0 mg/kg/injection, schedule: Q01DX011 (ip), vehicle: carboxymethylcellulose (CMC)) of the same compound?
The T/C was 3 % of control and 6 % of control.

`Cc1cnc(SCc2ccc(Cl)cc2Cl)[nH]c1=O` was tested. Which T/C (dose: 31.0 mg/kg/injection, schedule: Q01DX011 (ip), vehicle: methylcellulose (MC)) did it give?
Its T/C is 110 % of control.

And the T/C (dose: 62.0 mg/kg/injection, schedule: Q01DX011 (ip), vehicle: methylcellulose (MC))?
The T/C was 113 % of control.

What about the T/C (dose: 125.0 mg/kg/injection, schedule: Q01DX011 (ip), vehicle: methylcellulose (MC)) of the same compound?
Its T/C is 82 % of control.

What about the T/C (dose: 250.0 mg/kg/injection, schedule: Q01DX011 (ip), vehicle: methylcellulose (MC)) of the same compound?
Its T/C is 99 % of control.

What does the source list for `Cn1c2c(sc1=O)CCC2`?
T/C (dose: 88.0 mg/kg/injection, schedule: Q01DX011 (ip), vehicle: methylcellulose (MC)): 54 % of control; T/C (dose: 175.0 mg/kg/injection, schedule: Q01DX011 (ip), vehicle: methylcellulose (MC)): 80 % of control

Which T/C (dose: 12.5 mg/kg/injection, schedule: Q01DX011 (ip), vehicle: methylcellulose (MC)) does the source give for `Nc1nc(=S)c2ncn(C3CCCCC3)c2[nH]1` here?
Its T/C is 81 % of control.

What about the T/C (dose: 25.0 mg/kg/injection, schedule: Q01DX011 (ip), vehicle: methylcellulose (MC)) of the same compound?
Its T/C is 86 % of control.

What about the T/C (dose: 50.0 mg/kg/injection, schedule: Q01DX011 (ip), vehicle: methylcellulose (MC)) of the same compound?
The T/C was 50 % of control.

What does the source list for `Cn1cnc2nc[nH]c2c1=N`?
T/C (dose: 30.0 mg/kg/injection, schedule: Q01DX011 (ip), vehicle: saline): 115 % of control; T/C (dose: 60.0 mg/kg/injection, schedule: Q01DX011 (ip), vehicle: saline): 93 % of control; T/C (dose: 120.0 mg/kg/injection, schedule: Q01DX011 (ip), vehicle: saline): 74 % of control; T/C (dose: 240.0 mg/kg/injection, schedule: Q01DX011 (ip), vehicle: saline): 109 % of control

Which T/C (dose: 15.97 mg/kg/injection, schedule: Q01DX011 (ip), vehicle: carboxymethylcellulose (CMC)) does the source give for `NC(=O)NO` here?
Its T/C is 76 % of control.

And the T/C (dose: 25.0 mg/kg/injection, schedule: Q01DX011 (ip), vehicle: carboxymethylcellulose (CMC))?
The T/C was 111 % of control.

And the T/C (dose: 31.93 mg/kg/injection, schedule: Q01DX011 (ip), vehicle: carboxymethylcellulose (CMC))?
The T/C was 67 % of control.

What about the T/C (dose: 50.0 mg/kg/injection, schedule: Q01DX011 (ip), vehicle: carboxymethylcellulose (CMC)) of the same compound?
Its T/C is 83 % of control.

What about the T/C (dose: 51.08 mg/kg/injection, schedule: Q01DX011 (ip), vehicle: carboxymethylcellulose (CMC)) of the same compound?
Its T/C is 56 % of control.

What about the T/C (dose: 62.5 mg/kg/injection, schedule: Q01DX011 (ip), vehicle: carboxymethylcellulose (CMC)) of the same compound?
The T/C was 31 % of control.

And the T/C (dose: 63.85 mg/kg/injection, schedule: Q01DX011 (ip), vehicle: carboxymethylcellulose (CMC))?
The T/C was 41 % of control and 47 % of control.

And the T/C (dose: 85.13 mg/kg/injection, schedule: Q01DX011 (ip), vehicle: carboxymethylcellulose (CMC))?
The T/C was 53 % of control.

What about the T/C (dose: 100.0 mg/kg/injection, schedule: Q01DX011 (ip), vehicle: carboxymethylcellulose (CMC)) of the same compound?
The T/C was 58 % of control.

And the T/C (dose: 125.0 mg/kg/injection, schedule: Q01DX011 (ip), vehicle: carboxymethylcellulose (CMC))?
Its T/C is 44 % of control.

What about the T/C (dose: 127.7 mg/kg/injection, schedule: Q01DX011 (ip), vehicle: carboxymethylcellulose (CMC)) of the same compound?
The T/C was 22 % of control and 39 % of control.

What about the T/C (dose: 200.0 mg/kg/injection, schedule: Q01DX011 (ip), vehicle: carboxymethylcellulose (CMC)) of the same compound?
The T/C was 13 % of control.

What about the T/C (dose: 250.0 mg/kg/injection, schedule: Q01DX011 (ip), vehicle: carboxymethylcellulose (CMC)) of the same compound?
Its T/C is 6 % of control and 12 % of control and 19 % of control.

What about the T/C (dose: 500.0 mg/kg/injection, schedule: Q01DX011 (ip), vehicle: carboxymethylcellulose (CMC)) of the same compound?
Its T/C is 19 % of control.

What does the source list for `CN(Cc1cnc2nc(N)nc(N)c2n1)c1ccc(C(=O)N[C@@H](CCC(=O)O)C(=O)O)cc1`?
T/C (dose: 0.56 mg/kg/injection, schedule: Q01DX011 (ip), vehicle: carboxymethylcellulose (CMC)): 94 % of control; T/C (dose: 0.84 mg/kg/injection, schedule: Q01DX011 (ip), vehicle: carboxymethylcellulose (CMC)): 57 % of control; T/C (dose: 1.0 mg/kg/injection, schedule: Q01DX011 (ip), vehicle: other): 77 % of control; T/C (dose: 1.05 mg/kg/injection, schedule: Q01DX011 (ip), vehicle: carboxymethylcellulose (CMC)): 48 % of control; T/C (dose: 1.13 mg/kg/injection, schedule: Q01DX011 (ip), vehicle: carboxymethylcellulose (CMC)): 48 % of control; T/C (dose: 1.4 mg/kg/injection, schedule: Q01DX011 (ip), vehicle: carboxymethylcellulose (CMC)): 36 % of control; T/C (dose: 2.0 mg/kg/injection, schedule: Q01DX011 (ip), vehicle: carboxymethylcellulose (CMC)): 49 % of control; T/C (dose: 2.0 mg/kg/injection, schedule: Q01DX011 (ip), vehicle: other): 43 % of control; T/C (dose: 2.1 mg/kg/injection, schedule: Q01DX011 (ip), vehicle: carboxymethylcellulose (CMC)): 27 % of control; T/C (dose: 2.25 mg/kg/injection, schedule: Q01DX011 (ip), vehicle: carboxymethylcellulose (CMC)): 96 % of control; T/C (dose: 4.5 mg/kg/injection, schedule: Q01DX011 (ip), vehicle: carboxymethylcellulose (CMC)): 48 % of control; T/C (dose: 263.0 micrograms/kg/injection, schedule: Q01DX011 (ip), vehicle: carboxymethylcellulose (CMC)): 66 % of control; T/C (dose: 525.0 micrograms/kg/injection, schedule: Q01DX011 (ip), vehicle: carboxymethylcellulose (CMC)): 53 % of control; T/C (dose: 563.0 micrograms/kg/injection, schedule: Q01DX011 (ip), vehicle: carboxymethylcellulose (CMC)): 63 % of control; T/C (dose: 1050.0 micrograms/kg/injection, schedule: Q01DX011 (ip), vehicle: carboxymethylcellulose (CMC)): 68 % of control; T/C (dose: 1125.0 micrograms/kg/injection, schedule: Q01DX011 (ip), vehicle: carboxymethylcellulose (CMC)): 97 % of control; T/C (dose: 2100.0 micrograms/kg/injection, schedule: Q01DX011 (ip), vehicle: carboxymethylcellulose (CMC)): 31 % of control; T/C (dose: 2250.0 micrograms/kg/injection, schedule: Q01DX011 (ip), vehicle: carboxymethylcellulose (CMC)): 68 % of control

Which results are given for `CC(=O)Oc1ccc2c(c1)CC[C@@H]1[C@@H]2CC[C@@]2(C)[C@H]1CC[C@]2(C)OC(C)=O`?
T/C (dose: 31.0 mg/kg/injection, schedule: Q01DX011 (sc), vehicle: steriod suspending solution): 76 % of control; T/C (dose: 62.5 mg/kg/injection, schedule: Q01DX011 (sc), vehicle: steriod suspending solution): 64 % of control; T/C (dose: 125.0 mg/kg/injection, schedule: Q01DX011 (sc), vehicle: steriod suspending solution): 71 % of control; T/C (dose: 250.0 mg/kg/injection, schedule: Q01DX011 (sc), vehicle: steriod suspending solution): 44 % of control

Reference: PubChem BioAssay AID180 (DTP/NCI, 2004)
